Measurements from PMC12029925, “Kinetics of Manganese Peroxidase Using Simple Phenolic Compounds as Substrates” (Metabolites, 2025).

System: T1, MnP (manganese peroxidase)
T1 construct: gene MNP1; commercial recombinant enzyme (Sigma Aldrich), expressed in corn
Test: UV/Vis quinone formation at […] nm, Michaelis-Menten fit
Format: biochemical, Phanerochaete chrysosporium
Details: with 1 mM Mn(II); 0.05% H2O2; 0.1 M sodium acetate pH 4.5; 25 °C; 50 µM MnP; 8 min; apparent, oxidation may be mediated by Mn(III)

SMILES | Km
O=C(O)c1cc(O)c(O)c(O)c1 [gallic acid] | 660 µM
Oc1cccc(O)c1O [pyrogallol] | 280 µM
